{"source": "patent US20230098403A1", "about": "“MAGNETIC RESONANCE IMAGING CONTRAST AGENT, PREPARATION METHOD AND USE THEREOF” (GUANGZHOU PINGLAN MEDICAL TECHNOLOGY CO., LTD., priority 2020, published 2023)", "key": {"QSG7701 hepatocyte line": {"system": "QSG7701 hepatocyte line", "assay": "Hepatocyte toxicity test (MTT)", "type": "cell-based, human", "description": "One or two days later, when the cell density meet the requirements of passage (the cell growth rate reaches 80-90%), the cells were washed 1 to 2 times with PBS, and then PBS was removed and 1 mL trypsin was added to completely cover the surface of the cells for 1 to 2 minutes, followed by observing under an inverted microscope. When more than 90% of the cells have become large and round and could be shaken gently to remove a little, complete medium (DMEM medium:FBS:antibiotic=100:10:1) was immediately added to stop digestion. The cells were blow and separated, transferred to a 15 mL centrifuge tube, which was centrifuged at 1000 rpm for 5 min at room temperature, then the supernatant was removed. The cells were transferred to a […] petri dish, 5 to 10 ml fresh complete medium was added for further culture. Culture medium was changed after 2-3 days or subcultured in a ratio of 1:2 and 1:3.\n2) Cryopreservation: when the cells were in the logarithmic growth phase and the growth state was good, cryopreservation was selected and a cryopreservation solution (DMEM:FBS:DMSO=6:3:1) was prepared as above, the cells were collected after stopping digestion and centrifuging in a centrifuge tube. The cells were suspended in the cryopreservation solution, the cell concentration (lx 10^6/mL to 10×10^6/mL) were adjusted and then the cells were divided into cryopreservation tubes, the cell type, date, cryopreserved person, and passage times were recorded. The tubes were placed in a gradient freezer box in a −80° C. freezer and transferred to a liquid nitrogen tank for storage the next day.\n3) Cell recovery: a cryovial containing QSG7701 was taken out from the liquid nitrogen tank and put in a 37° C. water bath for 1 to 2 minutes and shaken quickly to thaw. The thawed cell fluid was transferred to a 15 mL centrifuge tube, centrifuged at 1000 rpm for 5 min at room temperature, then the supernatant was removed, and 5 to 10 mL fresh complete culture medium was added into it, the cell type, date, and the name of the culture person were recorded, the cells were cultured in a 37° C. incubator with 5% CO2. […]\n4) Finally, the 96-well plate was taken out, the medium was removed, and 100 μl DMSO was added to the plate, shaken horizontally and mixed for 2-3 minutes to fully dissolve the crystals, and the OD value was read at the detection line of 595 nm with a microplate reader.\nOrigin 9.0 software was used for data mapping, and measurement data were expressed as mean±standard deviation (±sd); SPSS14.0 statistical software was used for data statistics, and univariate analysis was used."}, "[1]": {"assay": "Pharmacokinetics study, Mn^2+ in whole blood by ICP-MS", "type": "in vivo", "conditions": "SD rats, caudal vein 0.1 mmol/kg, non-compartment model", "description": "Totally 8 SD rats, 3 female rats and 5 male rats, weighed 220 to 240 g, were anesthetized by intraperitoneal injection of 3% pentobarbital sodium (50 mg/kg) and fixed in supine position, followed by removing neck hair and disinfecting routinely for later use.\nCatheterization of left carotid artery comprises steps as follows: making a 20 mm longitudinal incision from the 3 mm left side of the median cervical line (the line from the sternum to the mandible) and 7 mm above the sternum; dissecting the skin to expose the subcutaneous tissue, and performing a blunt layer-by-layer dissection until the carotid artery was visualized; separating […] from its accompanied veins by blunt dissection; ligating distal portion and proximal portion of the heart respectively, wherein the distance between the nodes was 2.5-3.5 cm; inserting an indwelling needle into the artery near the node at the distal portion of the heart and fixing with a hemostatic clip, taking the needle out and releasing the node at the proximal portion of the heart; and injecting heparin lithium (150 μg/kg) to perform systemic heparinization in body.\nCaudal vein was rapidly injected (<5s) with KBR0826 solution (0.05 mmol/mL) at a dose of 0.1 mmol/kg. Before injection and within 1 min, 2 min, 3 min, 5 min, 8 min, 13 min, 20 min, 30 min, and 50 min after the injection, 0.1 mL of carotid blood was respectively collected and placed in a 0.5 mL EP tube and stored at −20° C.\nICP-MS was configured with a power of 1150 W, a flow rate of argon for atomization gas of 0.95 L·min^−1, a flow rate of argon for auxiliary gas of 1.2 L·min^−1, a flow rate of argon for plasma gas of 18 L·min^−1, pump speed of 20 r·min^−1, an analytic mode being standard mode, repetition sampling in triple.\nA set of standard solution was prepared with standard reagents (PerkinElmer, […] (1000 ppb): Ag, Al, As, Cs, Cu, Sr, Se, Mn, etc.) at different concentrations, i.e., at 1.0 ppb, 10 ppb, 50 ppb, 100 ppb, 200 ppb and 1000 ppb, to establish a standard curve (as shown in FIG. 3), and R^2 for the linear equation was >0.9999.\n20 μL of sample (whole blood) was collected and diluted to 6 to 10 mL with 1% HNO3, such that the concentration of Mn^2+ ranged from 1 ppb to 100 ppb; sample IDs were generated and then the samples were measured, and Mn^2+ concentrations of the sample solutions were calculated according to the response intensity and the standard curve.\nPKSolver 2.0 was used for calculating relevant pharmacokinetic parameters."}}, "note": "Values joined by “and” are separate entries in the source; they are usually repeats but may differ in a detail not shown here. Equal entries are not always repeated.", "data": [{"smiles": "O=C([O-])CN(CP(=O)([O-])O)C1CCCCC1N(CC(=O)[O-])CP(=O)([O-])O.[Mn+2].[Na+].[Na+]", "note": "(stereo not drawn) [KBR0826]", "values": [{"measurement": "survival rate of the QSG7701 hepatocyte line", "setting": "QSG7701 hepatocyte line; 0.02 mmol/L, 0.1 mmol/L or 0.5 mmol/L, each detection time point (6 h, 12 h, 24 h, 48 h), MTT, OD 595 nm", "value": "does not decrease significantly"}, {"measurement": "survival rate of the QSG7701 hepatocyte line", "setting": "QSG7701 hepatocyte line; 2.5 mmol/L, 24 h and 48 h, p<0.05", "value": "decrease significantly"}, {"measurement": "survival rate of the QSG7701 hepatocyte line", "setting": "QSG7701 hepatocyte line; 12.5 mmol/L, at 12 h, p<0.05", "value": "decreases significantly"}, {"measurement": "inhibitory effect on the proliferation of QSG7701 hepatocyte line", "setting": "QSG7701 hepatocyte line; within 24 hours, 25 times of the clinical dose (2.5 mmol/L)", "value": "non-obvious inhibitory effect"}, {"measurement": "AUC0-inf", "setting": "[1]", "value": "734.55 ± 333.06", "unit": "mg·min/L"}, {"measurement": "AUC0-t", "setting": "[1]", "value": "712.59 ± 325.70", "unit": "mg·min/L"}, {"measurement": "AUMC0-inf", "setting": "[1]", "value": "8419.63 ± 9547.34", "unit": "mg/L · min^2"}, {"measurement": "C0", "setting": "[1]", "value": "616.61 ± 568.85", "unit": "µg/mL"}, {"measurement": "MRT0-inf", "setting": "[1]", "value": "11.26 ± 8.93", "unit": "min"}, {"measurement": "V", "setting": "[1]", "value": "0.38 ± 0.45", "unit": "L/kg"}, {"measurement": "Vss", "setting": "[1]", "value": "0.17 ± 0.30", "unit": "L/kg"}, {"measurement": "t1/2 (plasma half-life)", "setting": "[1]", "value": "23 min and 22.87 ± 13.04 min"}]}]}
